Assay results as given in the supplement of paper PMC10307832.

Key:
Assay in all cases: relative viability (nuclei count vs DMSO), 5 days (fraction); higher = more cells survive
[1] = compound: CC(C)C[C@H](NC(=O)[C@H](CCc1ccccc1)NC(=O)CN1CCOCC1)C(=O)N[C@@H](Cc1ccccc1)C(=O)N[C@@H](CC(C)C)C(=O)[C@@]1(C)CO1 [Carfilzomib]
Outline: (§1)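 Cells of lung cancer lines were placed in 1536-well plates and kept overnight at 37 °C. Pinning then delivered five library-drug doses (not always all listed), spaced by √10, onto plates anchored with vehicle, and the cells were left 5 days without changing medium. One step fixed, permeabilised and stained them with Hoechst, and MetaXpress counted nuclei in 4× images. Viability, as a median over plates, is treated-well nuclei divided by vehicle-well nuclei, with acceptance only at control CV below 25% and at least one doubling.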

[2] = compound: C[C@@H](Oc1cc(-c2cnn(C3CCNCC3)c2)cnc1N)c1c(Cl)ccc(F)c1Cl [Crizotinib]
Outline: as §1

[3] = compound: O=C(c1cc(Cc2n[nH]c(=O)c3ccccc23)ccc1F)N1CCN(C(=O)C2CC2)CC1 [Olaparib]
Outline: as §1

Row | Cell Line | relative viability ([1]; 0.001 µM) | relative viability ([1]; 0.003162 µM) | relative viability ([1]; 0.01 µM) | relative viability ([1]; 0.03162 µM) | relative viability ([1]; 0.1 µM) | relative viability ([2]; 0.01 µM) | relative viability ([2]; 0.03162 µM) | relative viability ([2]; 0.1 µM) | relative viability ([2]; 0.3162 µM) | relative viability ([2]; 1 µM) | relative viability ([2]; 1 µM, anchor plate) | relative viability ([3]; 0.08 µM) | relative viability ([3]; 0.253 µM) | relative viability ([3]; 2.53 µM) | relative viability ([3]; 8 µM) | relative viability ([3]; 8 µM, anchor plate)
1 | EKVX | 0.913 | 1 | 1.17 | 0.76 | 0.369 | 0.969 | 0.941 | 0.933 | 0.847 | 0.982 | 0.967 | 1.03 | 0.885 | 0.969 | 1.03 | 0.884
2 | EMC-BAC-2 | 0.957 | 1.18 | 1.04 | 0.972 | 0.432 | 1.08 | 0.96 | 0.98 |  | 0.923 | 0.767 | 1.1 | 0.91 | 1.05 | 0.849 | 0.477
3 | EPLC-272H | 0.845 | 1.22 | 0.834 | 0.242 | 0.0648 | 0.883 | 0.932 | 0.937 | 0.778 | 0.955 | 0.912 | 1.17 | 0.889 | 0.968 | 0.878 | 0.832
4 | H3255 | 0.973 | 1.09 | 1.11 | 0.718 | 0.373 | 0.963 | 0.993 | 0.991 | 0.911 | 1.03 | 0.934 | 1.01 | 0.869 | 1.05 | 0.924 | 0.579
5 | HARA | 0.996 | 1.09 | 1.2 | 0.427 | 0.126 | 0.796 |  | 1.03 | 0.779 | 1.02 | 1.04 | 1.14 | 0.852 | 0.804 | 0.811 | 0.788
6 | HCC-15 | 0.954 | 1.07 | 1.07 | 0.709 | 0.177 | 0.917 | 1.04 | 1.01 |  | 0.974 | 0.813 | 1.09 | 0.904 | 0.999 | 0.878 | 0.731
7 | HCC-44 | 0.988 | 0.996 | 1.05 | 0.819 | 0.317 | 0.967 | 0.974 | 1.06 | 0.879 | 0.944 | 0.785 | 1.04 | 0.949 | 1.02 | 1.08 | 0.963
8 | HCC-78 | 0.839 | 1.09 | 1.07 | 0.662 | 0.267 | 0.916 | 0.993 | 1.01 | 0.476 | 0.778 | 0.348 | 1.1 | 0.836 | 0.953 | 0.861 | 0.831
9 | HCC-366 | 0.992 | 1.02 | 1.01 | 1.05 | 0.0704 | 0.952 | 1.01 |  |  | 1.07 | 0.466 | 1.05 | 0.988 | 0.943 | 0.862 | 0.352
10 | HCC-827 | 1.05 | 1.05 | 1.09 | 0.97 | 0.647 | 0.985 | 1.03 | 1.03 | 0.901 | 1.03 |  | 0.999 | 0.989 | 0.962 | 0.966 | 0.61
11 | HOP-62 | 1.04 | 1.09 | 0.92 | 0.251 | 0.106 | 0.96 | 1.01 | 1.03 | 0.874 | 1.04 | 1 | 1.08 | 0.984 | 0.997 | 0.722 | 0.384
